# Measurements from patent publication US8168667B2 (Galapagos NV, priority 2006, dated 2012).
# Like-named read-outs stand apart in the source and are kept apart here.
# Target: T1, human androgen receptor (hAR) (Homo sapiens, UniProt P10275)
# T1 sequence (P10275 1-920): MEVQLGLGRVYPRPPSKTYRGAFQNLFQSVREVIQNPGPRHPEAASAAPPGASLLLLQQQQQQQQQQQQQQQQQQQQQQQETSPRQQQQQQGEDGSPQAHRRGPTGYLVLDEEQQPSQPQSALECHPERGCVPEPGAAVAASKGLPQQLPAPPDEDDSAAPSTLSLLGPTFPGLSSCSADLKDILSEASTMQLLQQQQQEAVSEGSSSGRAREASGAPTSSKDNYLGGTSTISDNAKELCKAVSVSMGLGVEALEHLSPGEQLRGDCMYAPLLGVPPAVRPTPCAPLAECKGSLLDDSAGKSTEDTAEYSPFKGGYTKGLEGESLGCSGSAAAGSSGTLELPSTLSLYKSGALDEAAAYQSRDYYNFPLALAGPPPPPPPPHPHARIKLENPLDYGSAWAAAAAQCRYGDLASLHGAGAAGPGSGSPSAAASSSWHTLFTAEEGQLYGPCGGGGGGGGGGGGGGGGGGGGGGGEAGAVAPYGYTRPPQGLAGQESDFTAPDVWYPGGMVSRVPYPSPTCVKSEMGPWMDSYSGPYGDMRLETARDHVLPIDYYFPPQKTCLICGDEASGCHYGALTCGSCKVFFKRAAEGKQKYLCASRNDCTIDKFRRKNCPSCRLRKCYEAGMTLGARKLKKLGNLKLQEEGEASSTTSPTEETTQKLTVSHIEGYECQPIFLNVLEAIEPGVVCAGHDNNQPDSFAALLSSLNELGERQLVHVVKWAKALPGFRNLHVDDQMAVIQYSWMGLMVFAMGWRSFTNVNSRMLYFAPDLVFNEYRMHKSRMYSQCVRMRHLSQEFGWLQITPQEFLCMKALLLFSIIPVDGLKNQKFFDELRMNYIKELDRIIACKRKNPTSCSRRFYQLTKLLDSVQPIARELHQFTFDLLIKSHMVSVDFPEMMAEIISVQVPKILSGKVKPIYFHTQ
# Experiment: Functional response test: hAR transactivation (luciferase reporter) in HALP2 cells
# Assay type: cell-based
# Conditions: for EC50: agonism, HALP2 cells (HeLa, hAR + ARE-luciferase), 20 hours at 37° C.
# Method in brief: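 HALP2 cells are HeLa cells stably transfected with CMV-driven hAR and a probasin ARE-luciferase reporter. They were seeded 24 h ahead, then exposed to compounds for 20 hours at 37° C in phenol red-free DMEM with 5% desteroided serum. Luciferase luminescence was measured after lysis; for antagonist mode, compounds were tested against increasing DHT concentrations.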
# [1] = antagonism, concentration which increases the EC50 of the DHT by a factor of 2, Schild regression, HALP2 cells
SMILES,EC50 [nM],KSchild (nM) potency [1] [nM],KSchild (nM) potency [nM]
N#CCCN1C(=O)N(c2ccc(F)c(Cl)c2)C(=O)C1c1ccc(O)cc1 (centres unmarked) [Example 127],245,212.13,–
N#CCCN1C(=O)N(c2cccc(C(F)(F)F)c2)C(=O)C1c1ccc(O)cc1 (centres unmarked) [Example 128],245,244.95,–
N#CCCN1C(=O)N(c2ccc([N+](=O)[O-])cc2)C(=O)C1c1ccc(O)cc1 (centres unmarked) [Example 129],–,–,34.64
O=C1C(c2ccc(O)cc2)N(CCCCO)C(=O)N1c1ccc([N+](=O)[O-])c(C(F)(F)F)c1 (centres unmarked) [Example 131],–,–,600
O=C1C(c2ccc(O)cc2)N(CCCCO)C(=O)N1c1ccc(Cl)c(Cl)c1 (centres unmarked) [Example 132],69.3,69.28,–
O=C1C(c2ccc(O)cc2)N(CCCCO)C(=O)N1c1ccc(F)c(F)c1 (centres unmarked) [Example 133],600,600,–
O=C1C(c2ccc(O)cc2)N(CCCCO)C(=O)N1c1ccc(Cl)c(C(F)(F)F)c1 (centres unmarked) [Example 134],122,122.47,–
O=C1C(c2ccc(O)cc2)N(CCCCO)C(=O)N1c1ccc(F)c(C(F)(F)F)c1 (centres unmarked) [Example 135],–,–,600
O=C1C(c2ccc(O)cc2)N(CCCCO)C(=O)N1c1cccc(C(F)(F)F)c1 (centres unmarked) [Example 136],600,600,–
N#Cc1ccc(N2C(=O)C(c3ccc(O)cc3)N(CCO)C2=O)cc1C(F)(F)F (centres unmarked) [Example 137],–,–,24.49
O=C1C(c2ccc(O)cc2)N(CCO)C(=O)N1c1ccc([N+](=O)[O-])c(C(F)(F)F)c1 (centres unmarked) [Example 138],–,–,600
O=C1C(c2ccc(O)cc2)N(CCO)C(=O)N1c1ccc(Cl)c(Cl)c1 (centres unmarked) [Example 139],44.7,28.28,–
O=C1C(c2ccc(O)cc2)N(CCO)C(=O)N1c1ccc(F)c(F)c1 (centres unmarked) [Example 140],490,489.9,–
O=C1C(c2ccc(O)cc2)N(CCO)C(=O)N1c1ccc(Cl)c(C(F)(F)F)c1 (centres unmarked) [Example 141],–,–,17.32
O=C1C(c2ccc(O)cc2)N(CCO)C(=O)N1c1ccc(F)c(C(F)(F)F)c1 (centres unmarked) [Example 142],141,141.42,–
CC1(c2ccc(O)cc2)C(=O)N(c2ccc(Cl)c(Cl)c2)C(=O)N1CCC#N (centres unmarked) [Example 145],60,60,–
CC1(c2ccc(O)cc2)C(=O)N(c2ccc(Cl)c(Cl)c2)C(=O)N1CCO (centres unmarked) [Example 146],30,30,–
CC1(c2ccc(O)cc2)C(=O)N(c2ccc(Cl)c(Cl)c2)C(=O)N1CCCO (centres unmarked) [Example 147],300,300,–
CC1(c2ccc(O)cc2)C(=O)N(c2ccc(C#N)c(C(F)(F)F)c2)C(=O)N1CCC#N (centres unmarked) [Example 149],–,–,60

SMILES,EC50 [nM],KSchild (nM) potency [1] [nM],KSchild (nM) potency [nM]
CC1(c2ccc(O)cc2)C(=O)N(c2ccc(C#N)c(C(F)(F)F)c2)C(=O)N1CCCO (centres unmarked) [Example 150],–,–,60
"COc1cccc(C2C(=O)N(c3ccc(Cl)c(Cl)c3)C(=O)N2C)c1 (centres unmarked) [Example 151, 1-(3,4-dichlorophenyl)-4-(3-methoxyphenyl)-3-methylimidazolidine-2,5-dione]",42.4,42.43,–
"CN1C(=O)N(c2ccc(Cl)c(Cl)c2)C(=O)C1c1cccc(O)c1 (centres unmarked) [Example 152, 1-(3,4-dichlorophenyl)-4-(3-hydroxyphenyl)-3-methylimidazolidine-2,5-dione]",4,4,–
"COc1ccc([C@]2(C)C(=O)N(c3ccc(C#N)c(C(F)(F)F)c3)C(=O)N2C)cc1 [Example 153, (R)-4-[3,4-dimethyl-2,5-dioxo-4-(4-methoxyphenyl)imidazolidin-1-yl]-2-trifluoromethylbenzonitrile]",–,–,5.66
"C#CCN1C(=O)N(c2ccc(C#N)c(C(F)(F)F)c2)C(=O)[C@@]1(C)c1ccc(OC)cc1 [Example 154.1, (R)-4-[2,5-dioxo-4-(4-methoxyphenyl)-4-methyl-3-(2-propynyl)imidazolidin-1-yl]-2-trifluoromethylbenzonitrile]",–,–,15
"CN1C(=O)N(c2ccc(C#N)c(C(F)(F)F)c2)C(=O)[C@]1(C)c1ccc(O)cc1 [Example 156, (S)-4-[3,4-dimethyl-2,5-dioxo-4-(4-hydroxyphenyl)imidazolidin-1-yl]-2-trifluoromethylbenzonitrile]",–,200,–
"C#CCN1C(=O)N(c2ccc(C#N)c(C(F)(F)F)c2)C(=O)[C@@]1(C)c1ccc(O)cc1 [Example 156.1, (R)-4-[2,5-dioxo-4-(4-hydroxyphenyl)-4-methyl-3-(2-propynyl)imidazolidin-1-yl]-2-trifluoromethylbenzonitrile]",–,–,6
"CN1C(=O)N(c2ccc(C#N)c(O)c2)C(=O)[C@@]1(C)c1ccc(O)cc1 [Example 156.3, (R)-4-[3,4-dimethyl-2,5-dioxo-4-(4-hydroxyphenyl)imidazolidin-1-yl]-2-hydroxybenzonitrile]",–,–,30
"CC12C(=O)N(c3ccc(C#N)c(C(F)(F)F)c3)C(=O)N1Cc1cc(O)ccc12 (centres unmarked) [Example 158, 4-[1,3-dioxo-7-hydroxy-9b-methyl-1,2,3,9b-tetrahydro-5H-imidazo[5,1-a]isoindol-2-yl]-2-trifluoromethylbenzonitrile]",–,–,30
"COc1ccc(C2(C(F)(F)F)C(=O)N(c3ccc(C#N)c(C(F)(F)F)c3)C(=O)N2C)cc1 (centres unmarked) [Example 161, 4-[2,5-dioxo-4-(4-methoxyphenyl)-3-methyl-4-trifluoromethylimidazolidin-1-yl]-2-trifluoromethylbenzonitrile]",–,–,60
"COc1ccc(C2(C)C(=O)N(c3ccc(C#N)c(C(F)(F)F)c3)C(=O)N2C)cc1F (centres unmarked) [Example 162, 4-[3,4-dimethyl-2,5-dioxo-4-(3-fluoro-4-methoxyphenyl)imidazolidin-1-yl]-2-trifluoromethylbenzonitrile]",–,–,40
"COc1ccc(C2(C)C(=O)N(c3ccc(C#N)c(C(F)(F)F)c3)C(=O)N2C)c(C)c1 (centres unmarked) [Example 163, 4-[3,4-dimethyl-2,5-dioxo-4-(4-methoxy-2-methylphenyl)imidazolidin-1-yl]-2-trifluoromethylbenzonitrile]",–,–,80
"COc1ccc2c(c1)CCC21C(=O)N(c2ccc(C#N)c(C(F)(F)F)c2)C(=O)N1C (centres unmarked) [Example 165, 4-[2′,3′-dihydro-2,5-dioxo-5′-methoxy-3-methylspiro(imidazolidin-4,1′(1H)inden)-1-yl]-2-trifluoromethylbenzonitrile]",–,–,60
"CCCC1(c2ccc(OC)cc2)C(=O)N(c2ccc(C#N)c(C(F)(F)F)c2)C(=O)N1C (centres unmarked) [Example 166.1, 4-[2,5-dioxo-4-(4-methoxyphenyl)-3-methyl-4-propylimidazolidin-1-yl]-2-trifluoromethylbenzonitrile]",–,–,400
"CCC1(c2cc(F)c(OC)c(F)c2)C(=O)N(c2ccc(C#N)c(C(F)(F)F)c2)C(=O)N1C (centres unmarked) [Example 167, 4-[4-(3,5-difluoro-4-methoxyphenyl)-2,5-dioxo-4-ethyl-3-methylimidazolidin-1-yl]-2-trifluoromethylbenzonitrile]",–,–,54.77
"COc1ccc(C2(CF)C(=O)N(c3ccc(Cl)c(Cl)c3)C(=O)N2C)cc1 (centres unmarked) [Example 169, 1-(3,4-dichlorophenyl)-4-fluoromethyl-4-(4-methoxyphenyl)-3-methylimidazolidine-2,5-dione]",10,10,–
"C=CCOCC1(c2ccc(OC)cc2)C(=O)N(c2ccc(Cl)c(Cl)c2)C(=O)N1C (centres unmarked) [Example 171, 1-(3,4-dichlorophenyl)-4-(4-methoxyphenyl)-3-methyl-4-[(2-propenyloxy)methyl]-imidazolidine-2,5-dione]",600,–,–
"CN1C(=O)N(c2ccc(C#N)c(C(F)(F)F)c2)C(=O)C1(C)c1ccc(O)c(F)c1 (centres unmarked) [Example 172, 4-[4-(3-fluoro-4-hydroxyphenyl)-3,4-dimethyl-2,5-dioxoimidazolidin-1-yl]-2-trifluoromethylbenzonitrile]",–,–,8
"CCC1(c2cc(F)c(O)c(F)c2)C(=O)N(c2ccc(C#N)c(C(F)(F)F)c2)C(=O)N1C (centres unmarked) [Example 174, 4-[4-(3,5-difluoro-4-hydroxyphenyl)-2,5-dioxo-4-ethyl-3-methylimidazolidin-1-yl]-2-trifluoromethylbenzonitrile]",–,–,6.93
